The text below walks through data of ChEMBL document CHEMBL5104131, “Pyrimidine-conjugated fluoroquinolones as new potential broad-spectrum antibacterial agents” (Bioorg Med Chem Lett, 2022).

Each structure is given as a SMILES string. Converted amounts (≈) assume the structure as drawn. The source made the active and inactive calls. The rule behind the calls is not given here.

For series [1], the system named is Staphylococcus aureus. Kind of series: Antibacterial activity against methicillin-resistant Staphylococcus aureus N315 assessed as bacterial growth inhibition by serial dilution method. The class given is functional.
For series [2], the system named is Enterococcus faecalis. Kind of series: Antibacterial activity against Enterococcus faecalis assessed as bacterial growth inhibition by serial dilution method. Format: functional.
The subject of series [3] is Staphylococcus aureus. Kind of series: Antibacterial activity against Staphylococcus aureus assessed as bacterial growth inhibition by serial dilution method. Format: functional.
Series [4] relates to Staphylococcus aureus. Kind of series: Antibacterial activity against Staphylococcus aureus ATCC 25923 assessed as bacterial growth inhibition by serial dilution method. The class given is functional.
Series [5] relates to Staphylococcus aureus. Kind of series: Antibacterial activity against Staphylococcus aureus ATCC 29213 assessed as bacterial growth inhibition by serial dilution method. Format: functional.
The test system of the next series is Klebsiella pneumoniae. Kind of series: Antibacterial activity against Klebsiella pneumoniae assessed as bacterial growth inhibition by serial dilution method. Format: functional.
The subject of series [6] is Escherichia coli. The series can be described thus: Antibacterial activity against Escherichia coli assessed as bacterial growth inhibition by serial dilution method. Format: functional.
For series [7], the system named is Escherichia coli. The series can be described thus: Antibacterial activity against Escherichia coli ATCC 25922 assessed as bacterial growth inhibition by serial dilution method. The class given is functional.
Series [8] concerns Pseudomonas aeruginosa. The series can be described thus: Antibacterial activity against Pseudomonas aeruginosa assessed as bacterial growth inhibition by serial dilution method. The class given is functional.
For series [9], the system named is Pseudomonas aeruginosa. The series can be described thus: Antibacterial activity against Pseudomonas aeruginosa ATCC 27853 assessed as bacterial growth inhibition by serial dilution method. The class given is functional.
The subject of a further series is Acinetobacter baumannii. The series can be described thus: Antibacterial activity against Acinetobacter baumannii assessed as bacterial growth inhibition by serial dilution method. The class given is functional.
The test system of the next series is Candida parapsilosis. The series can be described thus: Antifungal activity against Candida parapsilosis ATCC 22019 assessed as inhibition of fungal growth. The class given is functional. The note with it: Lodderomyces parapsilosis.
The next series has as its system Candida tropicalis. The series can be described thus: Antifungal activity against Candida tropicalis assessed as inhibition of fungal growth. The class given is functional.
In series [10] the test system is Enterococcus faecalis. The series can be described thus: Potency index, ratio of norfloxacin MIC to test compound MIC for antibacterial activity against Enterococcus faecalis assessed as bacterial growth inhibition by serial dilution method. The class given is functional.
Series [11] concerns Enterococcus faecalis. The series can be described thus: Potency index, ratio of ciprofloxacin MIC to test compound MIC for antibacterial activity against Enterococcus faecalis assessed as bacterial growth inhibition by serial dilution method. Format: functional.
Series [12] concerns Staphylococcus aureus. The series can be described thus: Potency index, ratio of norfloxacin MIC to test compound MIC for antibacterial activity against Staphylococcus aureus ATCC 25923 assessed as bacterial growth inhibition by serial dilution method. The class given is functional.
The test system of series [13] is Staphylococcus aureus. Kind of series: Potency index, ratio of norfloxacin MIC to test compound MIC for antibacterial activity against Staphylococcus aureus ATCC 29213 assessed as bacterial growth inhibition by serial dilution method. The class given is functional.
A further series has as its system Aspergillus fumigatus. Kind of series: Antifungal activity against Aspergillus fumigatus assessed as inhibition of fungal growth. The class given is functional.
The nature of series [14]: Cytotoxicity against human HaCaT cells assessed as cell viability at 12.5 ug/ml by CCK-8 assay relative to control. Format: toxicity, cell-based. The note with it: at 12.5 µg/mL, read-out: Activity.
A short description of series [15]: Cytotoxicity against human HaCaT cells assessed as cell viability at 50 ug/ml by CCK-8 assay relative to control. The class given is toxicity, cell-based. The settings on record: at 50 µg/mL, read-out: Activity.
Series [16] deals with Enterococcus faecalis. Kind of series: Bactericidal activity against Enterococcus faecalis assessed as log reduction in bacterial colony count at 1 times MIC measured after 6 hrs. The class given is functional.
For series [17], the system named is Enterococcus faecalis. The series can be described thus: Bactericidal activity against Enterococcus faecalis assessed as log reduction in bacterial colony count at 4 times MIC measured after 6 hrs. The class given is functional.
Series [18] deals with Enterococcus faecalis. Kind of series: Inhibition of biofilm formation in Enterococcus faecalis at 2 ug/ml incubated for 24 hrs by crystal violet staining based analysis relative to control. The class given is functional.
A short description of series [19]: Induction of intracellular ROS accumulation in Enterococcus faecalis assessed as fold increase in fluorescence intensity at 8 times MIC by DCFH-DA dye based fluorescence assay. Format: functional.
Series [20] relates to Calf thymus DNA. Kind of series: Binding affinity to calf thymus DNA assessed as red shift in absorption peak by UV-Vis spectrophotometric analysis. The note with it: Bos taurus.
Series [21] has as its system Calf thymus DNA. Kind of series: Binding affinity to calf thymus DNA assessed as DNA-compound complex formation by measuring hyperchromicity by UV-Vis spectrophotometric analysis. Format: tissue-based. The note with it: Bos taurus.
For series [22], the system named is Calf thymus DNA. The series can be described thus: Binding affinity to calf thymus DNA assessed as binding constant by UV-Vis spectrophotometric analysis. The note with it: Bos taurus.
Series [23] relates to Calf thymus DNA. Kind of series: Binding affinity to calf thymus DNA assessed as reduction in acridine orange-DNA complex formation by competitive binding assay. The note with it: Bos taurus.

For `COc1cnc(N2CCN(c3cc4c(cc3F)c(=O)c(C(=O)O)cn4C3CC3)CC2)nc1`, the MIC with Staphylococcus aureus [1] was determined as 32 µg/mL (≈ 72.8 µM); in the series on Enterococcus faecalis [2], 32 µg/mL (≈ 72.8 µM); in the series on Staphylococcus aureus [3], 256 µg/mL (≈ 583 µM); with Staphylococcus aureus [4] it was 8 µg/mL (≈ 18.2 µM); with Staphylococcus aureus [5], 2 µg/mL (≈ 4.55 µM); in the series on Klebsiella pneumoniae, 16 µg/mL (≈ 36.4 µM). Also, the MIC in the series on Escherichia coli [6] came to 64 µg/mL (≈ 146 µM); in the series with Escherichia coli [7], 4 µg/mL (≈ 9.1 µM); in the series on Pseudomonas aeruginosa [8], 64 µg/mL (≈ 146 µM); in the series with Pseudomonas aeruginosa [9] it was 32 µg/mL (≈ 72.8 µM); in the series on Acinetobacter baumannii, 1 µg/mL (≈ 2.28 µM); with Candida parapsilosis it was 2 µg/mL (≈ 4.55 µM). Also, the MIC in the series on Candida tropicalis was 2 µg/mL (≈ 4.55 µM).
`CCn1cc(C(=O)O)c(=O)c2cc(F)c(N3CCN(c4nccc(N)n4)CC3)cc21`: the MIC in the series with Staphylococcus aureus [1] was found to be 1 µg/mL (≈ 2.42 µM); with Enterococcus faecalis [2], 0.25 µg/mL (≈ 0.606 µM); with Staphylococcus aureus [3], 1 µg/mL (≈ 2.42 µM); in the series with Staphylococcus aureus [4] it was 0.5 µg/mL (≈ 1.21 µM); in the series on Staphylococcus aureus [5] it was 0.5 µg/mL (≈ 1.21 µM); in the series with Klebsiella pneumoniae, 0.5 µg/mL (≈ 1.21 µM). Besides, the MIC is 4 µg/mL (≈ 9.7 µM) with Escherichia coli [6]; 16 µg/mL (≈ 38.8 µM) in the series with Escherichia coli [7]; 0.25 µg/mL (≈ 0.606 µM) in the series with Pseudomonas aeruginosa [8]; 0.5 µg/mL (≈ 1.21 µM) in the series with Pseudomonas aeruginosa [9]; 4 µg/mL (≈ 9.7 µM) with Acinetobacter baumannii; 2 µg/mL (≈ 4.85 µM) in the series with Aspergillus fumigatus. The Ratio in the series on Enterococcus faecalis [10] is 16; in the series with Enterococcus faecalis [11], 4; in the series on Staphylococcus aureus [12], 4; in the series on Staphylococcus aureus [13], 8. For the same molecule, in series [14], the viability at 12.5 ug/ml is over 90%. In addition, the viability at 50 ug/ml in series [15] is 70%. In addition, the figures for the “log(activity)” value in the series with Enterococcus faecalis [16] and with Enterococcus faecalis [17] were 2.5 and 3.5, respectively. In addition, at 2 µg/mL the inhibition in the series on Enterococcus faecalis [18] was 53.9%. Besides, the “fold change (FC)” value in series [19] amounted to 2.5. Further, the outcome with Calf thymus DNA [20], in the series on Calf thymus DNA [21] and with Calf thymus DNA [23] was Active. The K in the series on Calf thymus DNA [22] was 1.01 10^5L/mol.
